From ChEMBL document CHEMBL4052759, “Discovery of DS79182026: A potent orally active hepcidin production inhibitor” (Bioorg Med Chem Lett, 2017)
One block for each compound: values may come before it.

Key:
[1] = target: RAC-alpha serine/threonine-protein kinase (Homo sapiens) (UniProt P31749); experiment: Inhibition of AKT1 (unknown origin) at 0.078 uM relative to control
[2] = target: T1, Serine/threonine-protein kinase Chk1 (Homo sapiens) (UniProt O14757); experiment: Inhibition of CHK1 (unknown origin) at 0.078 uM relative to control
T1 sequence (whole entry): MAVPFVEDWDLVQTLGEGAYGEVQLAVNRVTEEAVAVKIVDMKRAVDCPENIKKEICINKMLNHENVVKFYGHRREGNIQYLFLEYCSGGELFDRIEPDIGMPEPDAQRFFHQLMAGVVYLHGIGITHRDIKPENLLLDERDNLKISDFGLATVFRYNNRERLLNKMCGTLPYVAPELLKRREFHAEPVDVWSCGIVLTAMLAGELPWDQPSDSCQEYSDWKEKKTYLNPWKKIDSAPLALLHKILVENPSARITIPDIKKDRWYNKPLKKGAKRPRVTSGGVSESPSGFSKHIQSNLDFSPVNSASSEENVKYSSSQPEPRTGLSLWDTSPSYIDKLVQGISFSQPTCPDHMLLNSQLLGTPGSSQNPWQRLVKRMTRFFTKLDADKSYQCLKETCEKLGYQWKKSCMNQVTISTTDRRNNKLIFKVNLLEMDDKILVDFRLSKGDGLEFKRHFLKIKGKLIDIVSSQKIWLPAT

[3] = target: Ribosomal protein S6 kinase alpha-4 (Homo sapiens) (UniProt O75676); experiment: Inhibition of MSK2 (unknown origin) at 0.45 uM relative to control
Sequence of Ribosomal protein S6 kinase alpha-4 (Homo sapiens) (O75676 whole entry, looked up, canonical isoform): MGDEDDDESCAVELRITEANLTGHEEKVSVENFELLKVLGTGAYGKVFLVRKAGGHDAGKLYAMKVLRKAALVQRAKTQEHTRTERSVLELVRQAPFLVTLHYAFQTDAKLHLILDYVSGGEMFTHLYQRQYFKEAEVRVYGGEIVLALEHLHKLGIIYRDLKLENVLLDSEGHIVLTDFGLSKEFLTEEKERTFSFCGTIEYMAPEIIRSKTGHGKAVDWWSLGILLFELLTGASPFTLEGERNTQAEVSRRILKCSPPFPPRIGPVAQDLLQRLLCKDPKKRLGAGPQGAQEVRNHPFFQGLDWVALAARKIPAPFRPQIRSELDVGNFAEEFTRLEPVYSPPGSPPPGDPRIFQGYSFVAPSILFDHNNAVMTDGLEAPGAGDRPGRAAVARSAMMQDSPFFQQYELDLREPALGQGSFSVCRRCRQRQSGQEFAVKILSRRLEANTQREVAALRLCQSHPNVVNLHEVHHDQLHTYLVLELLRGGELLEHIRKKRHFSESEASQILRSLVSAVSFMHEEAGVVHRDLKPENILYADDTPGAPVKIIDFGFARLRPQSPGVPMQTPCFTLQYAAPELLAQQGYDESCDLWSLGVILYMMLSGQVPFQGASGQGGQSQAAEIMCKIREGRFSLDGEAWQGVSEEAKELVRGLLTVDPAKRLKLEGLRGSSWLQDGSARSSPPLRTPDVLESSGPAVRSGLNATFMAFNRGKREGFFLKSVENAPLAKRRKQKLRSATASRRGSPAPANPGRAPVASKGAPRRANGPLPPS

[4] = target: Casein kinase I isoform gamma-2 (Homo sapiens) (UniProt P78368); experiment: Inhibition of Casein kinase 1g2 (unknown origin) at 0.45 uM relative to control
Sequence of Casein kinase I isoform gamma-2 (Homo sapiens) (P78368 whole entry, looked up, canonical isoform): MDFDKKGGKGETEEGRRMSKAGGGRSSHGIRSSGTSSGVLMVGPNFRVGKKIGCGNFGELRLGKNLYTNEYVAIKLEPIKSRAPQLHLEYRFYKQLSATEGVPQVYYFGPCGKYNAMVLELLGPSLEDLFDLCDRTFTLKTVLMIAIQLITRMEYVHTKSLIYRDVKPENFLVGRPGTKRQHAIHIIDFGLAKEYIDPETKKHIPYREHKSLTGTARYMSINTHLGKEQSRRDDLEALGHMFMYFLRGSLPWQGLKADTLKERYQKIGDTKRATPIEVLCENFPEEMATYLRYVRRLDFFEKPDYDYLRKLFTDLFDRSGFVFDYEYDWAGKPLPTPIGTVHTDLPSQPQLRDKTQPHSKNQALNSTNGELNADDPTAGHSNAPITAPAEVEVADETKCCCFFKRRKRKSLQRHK

[5] = target: Ephrin type-A receptor 3 (Homo sapiens) (UniProt P29320); experiment: Inhibition of EPHA3 (unknown origin) at 0.45 uM relative to control
[6] = target: Ephrin type-A receptor 8 (Homo sapiens) (UniProt P29322); experiment: Inhibition of EPHA8 (unknown origin) at 0.45 uM relative to control
Sequence of Ephrin type-A receptor 8 (Homo sapiens) (P29322 whole entry): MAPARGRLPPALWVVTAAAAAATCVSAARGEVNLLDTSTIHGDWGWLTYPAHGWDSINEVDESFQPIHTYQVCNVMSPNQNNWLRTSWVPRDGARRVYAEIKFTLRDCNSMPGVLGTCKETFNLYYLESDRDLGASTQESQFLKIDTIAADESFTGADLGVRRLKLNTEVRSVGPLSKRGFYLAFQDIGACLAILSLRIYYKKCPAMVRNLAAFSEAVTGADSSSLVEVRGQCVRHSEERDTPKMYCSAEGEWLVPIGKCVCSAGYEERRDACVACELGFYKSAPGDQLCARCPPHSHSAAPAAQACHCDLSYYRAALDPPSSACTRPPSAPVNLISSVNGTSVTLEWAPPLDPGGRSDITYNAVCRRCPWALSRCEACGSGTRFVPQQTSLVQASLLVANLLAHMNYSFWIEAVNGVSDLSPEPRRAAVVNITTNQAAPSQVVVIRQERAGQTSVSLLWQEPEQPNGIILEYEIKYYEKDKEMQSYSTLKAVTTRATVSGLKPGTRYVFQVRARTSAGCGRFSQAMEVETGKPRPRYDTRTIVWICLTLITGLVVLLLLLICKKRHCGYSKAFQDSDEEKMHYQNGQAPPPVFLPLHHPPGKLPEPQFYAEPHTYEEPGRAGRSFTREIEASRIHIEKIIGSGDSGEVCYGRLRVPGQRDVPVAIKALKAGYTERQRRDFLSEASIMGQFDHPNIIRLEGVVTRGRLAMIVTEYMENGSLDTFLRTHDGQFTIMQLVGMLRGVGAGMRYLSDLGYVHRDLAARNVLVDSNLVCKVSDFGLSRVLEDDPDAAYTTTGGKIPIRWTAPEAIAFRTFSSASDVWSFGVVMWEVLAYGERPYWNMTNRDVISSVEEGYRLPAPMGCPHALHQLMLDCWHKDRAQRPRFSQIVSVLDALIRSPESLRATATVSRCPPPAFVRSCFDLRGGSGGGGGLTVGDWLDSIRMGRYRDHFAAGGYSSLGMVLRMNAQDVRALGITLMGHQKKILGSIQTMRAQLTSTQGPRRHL

[7] = target: Tyrosine-protein kinase Fer (Homo sapiens) (UniProt P16591); experiment: Inhibition of Fer (unknown origin) at 0.45 uM relative to control
[8] = target: Mitogen-activated protein kinase kinase kinase kinase 5 (Homo sapiens) (UniProt Q9Y4K4); experiment: Inhibition of KHS1 (unknown origin) at 0.45 uM relative to control
Sequence of Mitogen-activated protein kinase kinase kinase kinase 5 (Homo sapiens) (Q9Y4K4 whole entry, looked up): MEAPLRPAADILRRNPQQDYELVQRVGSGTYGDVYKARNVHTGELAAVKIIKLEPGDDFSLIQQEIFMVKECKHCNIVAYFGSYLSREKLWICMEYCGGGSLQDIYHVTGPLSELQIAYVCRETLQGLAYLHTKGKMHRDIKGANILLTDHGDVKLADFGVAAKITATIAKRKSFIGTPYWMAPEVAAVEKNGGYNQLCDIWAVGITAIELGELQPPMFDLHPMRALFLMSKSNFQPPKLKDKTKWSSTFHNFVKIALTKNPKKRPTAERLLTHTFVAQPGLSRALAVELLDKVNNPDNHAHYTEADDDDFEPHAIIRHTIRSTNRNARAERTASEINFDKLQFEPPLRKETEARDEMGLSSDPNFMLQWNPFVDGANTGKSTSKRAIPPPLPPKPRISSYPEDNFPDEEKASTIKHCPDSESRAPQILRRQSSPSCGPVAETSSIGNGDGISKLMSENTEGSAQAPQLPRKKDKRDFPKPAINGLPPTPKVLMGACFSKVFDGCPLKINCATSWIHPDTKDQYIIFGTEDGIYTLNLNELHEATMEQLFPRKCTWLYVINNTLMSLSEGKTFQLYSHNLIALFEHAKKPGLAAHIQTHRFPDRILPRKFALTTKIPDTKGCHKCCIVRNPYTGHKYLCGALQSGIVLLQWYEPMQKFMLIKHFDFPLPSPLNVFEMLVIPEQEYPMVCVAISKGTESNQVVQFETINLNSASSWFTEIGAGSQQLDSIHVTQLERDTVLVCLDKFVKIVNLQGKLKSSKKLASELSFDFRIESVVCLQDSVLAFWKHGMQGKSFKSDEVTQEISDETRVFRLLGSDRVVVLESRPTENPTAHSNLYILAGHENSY

[9] = target: Misshapen-like kinase 1 (Homo sapiens) (UniProt Q8N4C8); experiment: Inhibition of MINK (unknown origin) at 0.45 uM relative to control
Sequence of Misshapen-like kinase 1 (Homo sapiens) (Q8N4C8 whole entry, looked up): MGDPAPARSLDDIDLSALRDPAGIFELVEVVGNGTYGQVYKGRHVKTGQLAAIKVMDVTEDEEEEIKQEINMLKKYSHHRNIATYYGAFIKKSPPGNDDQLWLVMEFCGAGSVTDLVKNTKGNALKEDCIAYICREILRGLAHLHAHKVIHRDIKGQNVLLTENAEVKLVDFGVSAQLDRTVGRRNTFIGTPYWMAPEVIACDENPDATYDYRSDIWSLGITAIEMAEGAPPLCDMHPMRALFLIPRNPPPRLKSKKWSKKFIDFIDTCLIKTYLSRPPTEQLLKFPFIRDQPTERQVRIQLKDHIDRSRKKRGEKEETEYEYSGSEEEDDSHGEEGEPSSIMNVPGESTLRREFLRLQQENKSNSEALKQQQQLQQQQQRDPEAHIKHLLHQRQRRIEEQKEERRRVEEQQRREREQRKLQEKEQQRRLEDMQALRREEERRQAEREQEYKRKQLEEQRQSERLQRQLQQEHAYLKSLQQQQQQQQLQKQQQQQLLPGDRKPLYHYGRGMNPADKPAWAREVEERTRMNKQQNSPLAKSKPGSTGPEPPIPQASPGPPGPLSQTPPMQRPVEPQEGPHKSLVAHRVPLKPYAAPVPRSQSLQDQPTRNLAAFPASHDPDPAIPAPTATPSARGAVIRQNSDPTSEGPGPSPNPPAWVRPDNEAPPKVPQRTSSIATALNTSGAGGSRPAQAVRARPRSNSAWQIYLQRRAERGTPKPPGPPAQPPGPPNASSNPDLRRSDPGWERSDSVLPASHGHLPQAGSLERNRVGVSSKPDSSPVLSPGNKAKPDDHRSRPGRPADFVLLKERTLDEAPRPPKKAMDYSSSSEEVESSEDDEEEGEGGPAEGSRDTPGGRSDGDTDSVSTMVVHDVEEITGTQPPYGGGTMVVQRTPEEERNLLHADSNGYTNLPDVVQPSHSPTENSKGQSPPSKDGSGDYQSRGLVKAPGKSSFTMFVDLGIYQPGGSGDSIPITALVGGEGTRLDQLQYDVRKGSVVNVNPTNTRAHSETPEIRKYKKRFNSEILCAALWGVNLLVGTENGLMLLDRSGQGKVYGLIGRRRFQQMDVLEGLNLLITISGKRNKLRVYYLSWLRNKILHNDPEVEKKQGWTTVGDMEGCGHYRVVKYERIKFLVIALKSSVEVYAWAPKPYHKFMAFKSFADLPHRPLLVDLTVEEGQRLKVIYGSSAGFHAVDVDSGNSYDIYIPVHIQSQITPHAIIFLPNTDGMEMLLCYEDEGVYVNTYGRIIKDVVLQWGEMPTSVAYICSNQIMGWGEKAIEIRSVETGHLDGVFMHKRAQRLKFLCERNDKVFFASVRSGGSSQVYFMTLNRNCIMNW

[10] = target: Serine/threonine-protein kinase 4 (Homo sapiens) (UniProt Q13043); experiment: Inhibition of MST1 (unknown origin) at 0.45 uM relative to control
[11] = tested on: Platelet-derived growth factor receptor alpha (Homo sapiens), P16234 [D842V]; experiment: Inhibition of PDGFRA D842V mutant (unknown origin) at 0.45 uM relative to control
[12] = target: NUAK family SNF1-like kinase 1 (Homo sapiens) (UniProt O60285); experiment: Inhibition of NuaK1 (unknown origin) at 0.45 uM relative to control
[13] = target: Tyrosine-protein kinase ABL1 (Homo sapiens) (UniProt P00519); experiment: Inhibition of ABL (unknown origin) at 0.45 uM relative to control
[14] = tested on: Tyrosine-protein kinase ABL1 (Homo sapiens), P00519 [Q252H]; experiment: Inhibition of Abl Q252H mutant (unknown origin) at 0.45 uM relative to control
[15] = tested on: Leucine-rich repeat serine/threonine-protein kinase 2 (Homo sapiens), Q5S007 [G2019S]; experiment: Inhibition of LRRK2 G2019S mutant (unknown origin) at 0.45 uM relative to control
[16] = target: Ephrin type-A receptor 5 (Homo sapiens) (UniProt P54756); experiment: Inhibition of EPHA5 (unknown origin) at 0.49 uM relative to control
[17] = target: T2, Protein kinase C zeta type (Homo sapiens) (UniProt Q05513); experiment: Inhibition of PKC-zeta (unknown origin) at 0.49 uM relative to control
T2 sequence (whole entry): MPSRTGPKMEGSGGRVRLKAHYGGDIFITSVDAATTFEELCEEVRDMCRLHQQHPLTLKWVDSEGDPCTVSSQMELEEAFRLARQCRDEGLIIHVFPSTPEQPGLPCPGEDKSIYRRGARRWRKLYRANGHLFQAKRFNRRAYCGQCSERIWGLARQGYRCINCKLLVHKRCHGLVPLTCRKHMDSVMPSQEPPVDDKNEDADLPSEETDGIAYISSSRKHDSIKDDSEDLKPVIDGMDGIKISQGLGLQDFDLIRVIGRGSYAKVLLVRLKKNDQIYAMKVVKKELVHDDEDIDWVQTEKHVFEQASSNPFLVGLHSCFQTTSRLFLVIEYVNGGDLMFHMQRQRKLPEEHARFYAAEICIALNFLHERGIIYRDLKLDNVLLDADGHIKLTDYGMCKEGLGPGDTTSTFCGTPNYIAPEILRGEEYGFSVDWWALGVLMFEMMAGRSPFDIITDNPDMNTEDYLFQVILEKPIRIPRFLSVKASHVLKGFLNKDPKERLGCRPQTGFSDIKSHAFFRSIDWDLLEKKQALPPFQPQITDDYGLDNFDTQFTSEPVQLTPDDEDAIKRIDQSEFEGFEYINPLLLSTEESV

[18] = target: Aurora kinase C (Homo sapiens) (UniProt Q9UQB9); experiment: Inhibition of AurC (unknown origin) at 0.49 uM relative to control
[19] = target: Tyrosine-protein kinase FRK (Homo sapiens) (UniProt P42685); experiment: Inhibition of FRK (unknown origin) at 0.49 uM relative to control
[20] = target: Calcium/calmodulin-dependent protein kinase type II subunit beta (Homo sapiens) (UniProt Q13554); experiment: Inhibition of CAMK2 (unknown origin) at 0.49 uM relative to control
Sequence of Calcium/calmodulin-dependent protein kinase type II subunit beta (Homo sapiens) (Q13554 whole entry): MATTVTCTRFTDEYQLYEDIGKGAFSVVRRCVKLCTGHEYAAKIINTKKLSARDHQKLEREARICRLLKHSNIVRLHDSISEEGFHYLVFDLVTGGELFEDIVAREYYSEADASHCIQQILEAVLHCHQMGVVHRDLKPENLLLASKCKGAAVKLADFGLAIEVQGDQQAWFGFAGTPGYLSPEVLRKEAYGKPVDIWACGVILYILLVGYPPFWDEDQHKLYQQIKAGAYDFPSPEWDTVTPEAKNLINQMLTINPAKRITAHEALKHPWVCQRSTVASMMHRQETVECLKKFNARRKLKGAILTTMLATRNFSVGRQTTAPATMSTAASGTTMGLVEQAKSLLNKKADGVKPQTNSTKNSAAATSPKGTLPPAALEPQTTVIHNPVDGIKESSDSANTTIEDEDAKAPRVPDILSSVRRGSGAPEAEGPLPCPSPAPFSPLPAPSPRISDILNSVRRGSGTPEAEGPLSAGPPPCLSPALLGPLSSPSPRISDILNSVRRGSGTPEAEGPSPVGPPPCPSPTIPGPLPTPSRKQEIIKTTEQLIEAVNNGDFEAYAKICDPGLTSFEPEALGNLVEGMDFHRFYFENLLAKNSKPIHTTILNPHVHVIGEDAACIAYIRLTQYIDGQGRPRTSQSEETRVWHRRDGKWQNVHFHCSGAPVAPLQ

[21] = organism: Homo sapiens; experiment: Inhibition of ACK (unknown origin) at 0.49 uM relative to control
[22] = target: ALK tyrosine kinase receptor (Homo sapiens) (UniProt Q9UM73); experiment: Inhibition of ALK (unknown origin) at 0.49 uM relative to control
[23] = target: Protein-tyrosine kinase 2-beta (Homo sapiens) (UniProt Q14289); experiment: Inhibition of PYK2 (unknown origin) at 0.49 uM relative to control
[24] = target: Proto-oncogene tyrosine-protein kinase Src (Homo sapiens) (UniProt P12931); experiment: Inhibition of SRC (unknown origin) at 0.49 uM relative to control
[25] = target: Tyrosine-protein kinase Srms (Homo sapiens) (UniProt Q9H3Y6); experiment: Inhibition of SRM (SRMS) (unknown origin) at 0.49 uM relative to control

- inhibition [1]: -1%
- inhibition [2]: 1.3%
SMILES: COC(=O)Nc1noc2cc(-c3c(-c4ccccn4)n[nH]c3C)ccc12

- inhibition [3]: -3.3%
- inhibition [4]: 0.7%
- inhibition [5]: 5%
- inhibition [6]: 3.7%
- inhibition [7]: 2.3%
- inhibition [8]: 85%
- inhibition [9]: 83.7%
- inhibition [10]: 33.3%
- inhibition [11]: 79.3%
- inhibition [12]: 13%
- inhibition [13]: 82%
- inhibition [14]: 72%
- inhibition [15]: 18.7%
SMILES: Cc1n[nH]c(C)c1-c1ccc2c(NC(=O)c3ccc(N4CCN(C)CC4)cc3)n[nH]c2c1

- inhibition [16]: 3%
- inhibition [17]: 5%
- inhibition [18]: -3.3%
- inhibition [19]: 1.3%
- inhibition [20]: -7%
- inhibition [21]: 2.3%
- inhibition [22]: 0.3%
- inhibition [23]: 1.3%
- inhibition [24]: 5%
- inhibition [25]: 2.3%
SMILES: Cc1[nH]nc(C2CC2)c1-c1ccc2c(NC(=O)C3CC3)noc2c1
